According to US11685711B2, “Carbon monoxide-releasing molecules triggered by physiological stimuli” (Georgia State University Research Foundation, Inc., priority 2017, dated 2023):
Read-outs that look alike come from different tables or passages of the source. Blank lines part the entries; values can stand above or below the compound they belong to.

Columns and labels:
Raw 264.7 cells = test: Cytotoxicity against Raw 264.7 cells (Cell Counting Kit-8); format: cell-based; settings: concentrations up to 50 μM, 24 h of incubation
Description: All CO prodrugs were initially screened for their cytotoxicity against Raw 264.7 cells. […] Then RAW 264.7 cells were incubated in DMEM containing 1% DMSO and compounds (0-50 μM) for 24 hours. Then 10 μL of Cell Counting Kit-8 solution was added to each well and incubated for another three hours at 37° C. The absorbance at […] was measured by using a microplate reader.

physchem = format: physicochemical
Description: A solution of 10/11 (20 μM) and NaClO (40 or 60 μM) in 10% of ACN in PBS (pH=7.4) was sealed and incubated at 37° C. At each defined time point, 500 μL of the reaction mixture was taken out and added into a vial containing Na2SO3 (100 μL, 250 mM) to quench the reaction. The resulting solution was then analyzed by HPLC (column: Waters C18 3.5 μM, 4.6×100 mm, injection loop volume: 20 μL). CO release was determined by monitoring the formation of the product and the consumption of the reaction intermediate as in the case of 10 or prodrug 11. The mobile phase was acetonitrile ACN/H2O (containing 0.05% trifluoroacetic acid).

Hela cells [1] = test: Crystal violet assay, co-treatment with doxorubicin; settings: 24 h; for synergistic effects with Dox in killing Hela cells: co-treatment with Dox
Description: (§2) Towards this end, Hela cells and H9C2 cells were co-treated with 11/12 and Dox for 24 h. Then the cells were subjected to crystal violet assay for cytotoxicity evaluation. The cells treated with 11/12, or Dox only were used as controls. Additionally, the cells co-treated with Dox and compound 10a/11a/11b were employed as additional controls as well.
(§3) Hela cells and H9C2 cells were seeded in 96-well plates and cultured in DMEM supplemented with 10% FBS and 1% penicillin/streptomycin at 37° C. under 5% CO2 for 24 h. The cells were either incubated with doxorubicin (1% DMSO DMEM solution, 0 to 4 μM) or a mixture of doxorubicin and indicated compounds (1% DMSO DMEM solution, 0 to 4 μM for doxorubicin) for 24 h. After removal of the medium, the plate was washed with 150 μL/well of PBS and the cell was fixed with 4% paraformaldehyde for 1 h at room temperature. The solution in the well was then removed and 100 μL of 0.5% crystal violet staining solution was added to each well. After incubation for 15 min at room temperature, the plate was washed with 200 μL of DI water for each well twice, followed by the addition of 100 μL/well of acetic acid solution (33%) to dissolve the dye. Absorbance at 615 nm was then measured by using a Perkin Elmer 1420 multi-label counter. Cell viability was measured and the results were normalized to the vehicle group. The experiment was triplicated and the results are expressed as mean±SD (n=3).

[2] = Sensitivity of 11 to various ROS (HPLC, formation of 11a); format: physicochemical
Description: The CO release profiles in the absence/presence of ROS was studied using HPLC to monitor the consumption of 10/11 and the formation of 10a/11a. Various ROS solutions were prepared according to literature procedures. A solution of 11 (400 μL, 1 mM in acetonitrile (ACN) was added to 20 mL of PBS (pH 7.4, 10 mM). […] Additional ACN was added to make the final solution contain 10% of ACN. The resulting mixture was incubated at 37° C. for 30 min. CO release was monitored by the formation of 11a using HPLC. The experiment was triplicated, and the results are reported as mean±SD (n=3).

Hela cells [3] = system: Hela cells
Description: as §2, §3

Raw264.7 cells = test: Fluorescent imaging of CO release of 11 with COP-1, with or without LPS; format: cell-based; settings: Raw 264.7 cells, 11 50 μM + COP-1 1 μM + LPS 1 μg/mL, 5 hours
Description: For imaging studies of 11 in transformed macrophage cells, RAW 264.7 cells were seeded in 6-well plates one day before the imaging experiment. Compounds were dissolved in DMSO as stock solution. Final concentration of 1 μM COP-1, 50 μM of 11 and 1 μg/mL of LPS were added into the cell culture. The cells without 11 was used as the negative control. After adding the compound, the cells were incubated at 37° C. for 5 hours. The cells were then fixed and taken for fluorescent images under the FITC channel (excitation: 490 nm, emission: 525 nm) using a Zeiss fluorescent microscope.

H9C2 cells [4] = test: Crystal violet assay, co-treatment with doxorubicin and cytotoxicity; format: cell-based
Description: as §2
Hela cells and H9C2 cells were seeded in 96-well plates and cultured in DMEM supplemented with 10% FBS and 1% penicillin/streptomycin at 37° C. under 5% CO2 for 24 h. The cells were either incubated with doxorubicin (1% DMSO DMEM solution, 0 to 4 μM) or a mixture of doxorubicin and indicated compounds (1% DMSO DMEM solution, 0 to 4 μM for doxorubicin) for 24 h. After removal of the medium, the plate was washed with 150 μL/well of PBS and the cell was fixed with 4% paraformaldehyde for 1 h at room temperature. The solution in the well was then removed and 100 μL of 0.5% crystal violet staining solution was added to each well. […] Absorbance at 615 nm was then measured by using a Perkin Elmer 1420 multi-label counter. Cell viability was measured and the results were normalized to the vehicle group. The experiment was triplicated and the results are expressed as mean±SD (n=3).

[5] = Stability in the absence of ROS (HPLC); format: physicochemical
Description: Initially, 11 was employed to screen its sensitivity towards various ROS. […] The stability was tested by adding a solution of 11/12 (800 μL, 500 μM in acetonitrile) was added to 20 mL of PBS (pH 7.4, 10 mM) in a vial. Additional acetonitrile was added to make the final concentration of ACN 10% for all solutions. The resulting solution was incubated at 37° C. for 48 h. The solution was then analyzed using HPLC. All the experiments were triplicated, and the results are reported as mean±SD (n=3).

H9C2 cells [6] = test: Fluorescent imaging of CO release of 11 with COP-1; format: cell-based; settings: 11 50 μM + COP-1 1 μM
Description: (§1) Hela or H9C2 cells were seeded in 6-well plates one day before the imaging experiment. Compound 11 was dissolved in DMSO as stock solution. Final concentrations of 1 μM for COP-1 and […] were added into the cell culture. The sample without 11 was used as the negative control. After adding the compound, the cells were incubated at 37° C. for 5 hours. The cells were then fixed and taken for fluorescent images under the FITC channel (excitation: 490 nm, emission: 525 nm) using a Zeiss fluorescent microscope.

Hela cells [7] = test: Fluorescent imaging of CO release of 11 with COP-1; format: cell-based; settings: 11 50 μM + COP-1 1 μM, 5 hours
Description: as §1

porcine liver esterase = test: CO release kinetics in the presence of porcine liver esterase (HPLC); format: in vitro ADME
Description: […] At each defined time point, 250 μL of the reaction mixture was taken out and added into a vial containing 500 μL ethanol. The mixture was incubated in an acetone dry ice bath (−78° C.) for 5 min, and centrifuged for 9 min (14.5×1000 rp) to precipitate the esterase out. The resulting supernatant was then analyzed by HPLC (column: Waters C18 3.5 μM, 4.6×100 mm, injection loop volume: 20 μL). […] The mobile phase was acetonitrile CH3CN/H2O (containing 0.05% trifluoroacetic acid).

[8] = CO release kinetics of 38 with or without H2O2 (HPLC); format: physicochemical; settings: 20% of DMSO/PBS, 37° C., read-out: beta-elimination half-life (converted)
Description: Solutions of 38 (20 μM) in 20% of DMSO/PB S was incubated with or without H2O2 (270 μM) at 37° C. Aliquots were taken for HPLC analysis to determine CO release kinetics by monitoring the formation of compound 25. HPLC was conducted using a Waters C18 column (3.5 LM, 4.6x 100 mm) equipped with a 20-μL injection loop and acetonitrile:water (85:15) as the mobile phase.

SMILES: C[C@@]12C(=O)[C@](C)(C(c3ccccc3)=C1c1ccccc1)C(S(=O)(=O)c1ccccc1)C2C=O (stereo partly drawn) [Compound 7, (1S,4S)-1,4-dimethyl-7-oxo-5,6-diphenyl-3-(phenylsulfonyl)bicyclo-[2.2.1]hept-5-ene-2-carbaldehyde]
cytotoxicity (cell viability) (Raw 264.7 cells): no cytotoxicity was observed

SMILES: CC12CC([Se]c3ccccc3)C(C)(C1=O)C(c1ccccc1)=C2c1ccccc1 (stereo not drawn) [Compound 10, 1,4-dimethyl-2,3-diphenyl-5-(phenylselanyl)bicyclo[2.2.1]hept-2-en-7-one]
half-life of selenoxide elimination / CO release (physchem; 20 µM, pH 7.4): around 4 h | time to finish the oxidation step (physchem; initial hypochlorite concentration of 40 μM, 37° C.): 30 s

SMILES: Cc1ccc(C)c(-c2ccccc2)c1-c1ccccc1 [Compound 10a, 3′,6′-Dimethyl-1,1′:2′,1″-terphenyl]
synergistic effects with Dox in killing Hela cells (Hela cells [1]; Hela cells): no synergistic effects were observed

SMILES: COC(=O)C1([Se]c2ccccc2)CC2(C)C(=O)C1(C)C(c1ccccc1)=C2c1ccccc1 (stereo not drawn) [Compound 11, Methyl-1,4-dimethyl-7-oxo-5,6-diphenyl-2-(phenylselanyl)bicyclo[2.2.1]hept-5-ene-2-carboxylate]
transformation within 30 min ([2]; hydrogen peroxide (H2O2, 1 mM), 37° C.): less than 5% | transformation within 30 min ([2]; hydroxyl radical (HO., 500 μM), 37° C.): less than 5% | time to complete transformation from 11 to 11a ([2]; hypochlorite (40 μM) at 37° C.): 30 min | sensitivity towards ROS ([2]; hypochlorite (ClO−), singlet oxygen (1O2) and O2−, 37° C.): very sensitive | transformation within 30 min ([2]; tert-butoxy radical (tBuO·, 500 μM), 37° C.): less than 5% | transformation within 30 min ([2]; tert-butyl hydroperoxide (TBHP, 500 μM), 37° C.): less than 5% | half-life at 20 µM (physchem; pH 7.4): ~30 s | cell viability, compound only (Hela cells [3]): no decrease in cell viability was observed | intracellular CO release (green fluorescence) with LPS vs without LPS (Raw264.7 cells): significantly enhanced green fluorescence | synergistic effects with Dox in killing H9C2 cells (H9C2 cells [4]; H9C2 cells, co-treatment with Dox, 24 h): no synergistic effects were observed | formation of 11a ([5]; absence of hypochlorite, 48 h of incubation): no formation of 11a was observed | intracellular CO release (H9C2 cells [6]): negligible CO release | intracellular CO release (green fluorescence) compared with H9C2 cells (Hela cells [7]): much enhanced green fluorescence | synergistic effects with Dox in killing Hela cells (Hela cells [1]; Hela cells): synergistically

SMILES: COC(=O)c1cc(C)c(-c2ccccc2)c(-c2ccccc2)c1C [Compound 11a, Methyl 3′,6′-dimethyl-[1,1′:2′,1″-terphenyl]-4′-carboxylate]
synergistic effects with Dox in killing Hela cells (Hela cells [1]; Hela cells): no synergistic effects were observed

SMILES: COC(=O)C1([Se]c2ccccc2)CC2(C)CC1(C)C(c1ccccc1)=C2c1ccccc1 (stereo not drawn) [Compound 11b, methyl 1,4-dimethyl-5,6-diphenyl-2-(phenylselanyl)bicyclo-[2.2.1]hept-5-ene-2-carboxylate, reference compound]
synergistic effects with Dox in killing Hela cells (Hela cells [1]; Hela cells): no synergistic effects were observed

SMILES: CC12CC([Se]c3ccccc3)(C(=O)NCCC[P+](c3ccccc3)(c3ccccc3)c3ccccc3)C(C)(C1=O)C(c1ccccc1)=C2c1ccccc1 (stereo not drawn) [Compound 12, (3-(1,4-dimethyl-7-oxo-5,6-diphenyl-2-(phenylselanyl)bicyclo [2.2.1]hept-5-ene-2-carboxamido)propyl)triphenylphosphonium]
cytotoxicity against H9C2 cells (H9C2 cells [4]; 5 μM, 24 h of incubation): showed toxicity | stability in the absence of ROS ([5]; 10% ACN in PBS (pH 7.4), 37° C., 48 hours): very stable | cell viability (Hela cells [1]; Hela cells, 2 μM Dox in combination with 12 (2.5 μM)): around 20% | synergistic effects with Dox in killing Hela cells (Hela cells [1]; Hela cells): synergistically | cell viability, compound only (Hela cells [1]; Hela cells, without Dox (0-μM group)): no decrease in cell viability was observed

time to total consumption of prodrug (to form compound 23) (porcine liver esterase; porcine liver esterase (3 U/mL), 5% of DMSO in PBS (pH 7.4), 37° C.): ≤ 2 min
SMILES: CC(=O)OC(OC(C)=O)C1C(S(=O)(=O)c2ccccc2)[C@]2(C)C(=O)[C@]1(C)C(c1ccccc1)=C2c1ccccc1 (stereo partly drawn) [Compound 24a, ((1S,4S)-1,4-Dimethyl-7-oxo-5,6-diphenyl-3-(phenylsulfonyl)bicyclo [2.2.1]hept-5-en-2-yl)methylene diacetate]

esterase-mediated hydrolysis (porcine liver esterase; in the presence of PLE, after 24 h of incubation): no hydrolysis was observed
SMILES: CC(C)(C)C(=O)OC(OC(=O)C(C)(C)C)C1C(S(=O)(=O)c2ccccc2)[C@]2(C)C(=O)[C@]1(C)C(c1ccccc1)=C2c1ccccc1 (stereo partly drawn) [Compound 24d, ((1S,4S)-1,4-Dimethyl-7-oxo-5,6-diphenyl-3-(phenylsulfonyl)bicyclo [2.2.1]hept-5-en-2-yl)methylene bis(2,2-dimethylpropanoate)]

half-life at 20 µM ([8]; 20% DMSO in PBS with H2O2 (270 µM), H2O2 (270 μM)): ~1.5 h | half-life at 20 µM ([8]; 20% DMSO in PBS, without H2O2): ~24 h
SMILES: CCCCCSC1C(C=O)C2(C)C(=O)C1(C)C(c1ccccc1)=C2c1ccccc1 (stereo not drawn) [Compound 38]

SMILES: COc1cccc2c1C(=O)c1c(O)c3c(c(O)c1C2=O)C[C@@](O)(C(=O)CO)C[C@@H]3O[C@H]1C[C@H](N)[C@H](O)[C@H](C)O1 [Dox, doxorubicin, reference compound]
viability at 2 µM (Hela cells [1]; Homo sapiens, HeLa, read-out: cell viability): ~80%
